Test results from patent US20210317090A1, “AMINO ACID DEPLETION AGENTS AS ANTIPROLIFERATIVE AGENTS” (University of Central Florida Research Foundation, Inc., priority 2018, published 2021).

Tests used:
L3.6pl cells [1] = experiment: Intracellular leucine and methionine after cell lysis (LCMS); format: cell-based, human; settings: 72 h
Method: This example illustrates aspects according to various embodiments pertaining to a 72 h experiment with Compound 10 in L3.6pl cells. Ten milliliters of a cell suspension containing L3.6pl human pancreatic cancer cells (50,000 cells/mL) and aminoguanidine ([…]) were placed in treated plastic Petri dishes (d=9 cm) and incubated overnight at 37° C. After 24 h, the cells were dosed with compound 10 at 2 μM, 5 μM, or 7 μM. (Note: Stock solutions of 10 at 2, 5, and 7 mM were dissolved in phosphate buffered saline (PBS) and were filtered through a 0.2 μm filter prior to use. The experiments were maintained with a total volume of 10.01 mL where 10 mL of the cell suspension was placed in a plastic dish and each compound or the equivalent PBS volume was added to make up the total volume 10.01 mL for each dish. For example, for the control experiment PBS (10 μL) was added to make up the total volume (10 mL+10 μL=10.01 mL). After 72 h incubation, the cells were collected first by pipetting off the supernatant containing floating dead cells from the culture dish as well as media and placing them into 15 mL tubes. The supernatant containing floating cells was centrifuged (4 min at 1,000 rpm). The cell-free supernatant (supernatant #1) was collected into a new 15 mL tube and quantified (˜8.6 mL) and was then stored frozen and was later quantified by LCMS to investigate the media composition of particular polyamine and amino acid analytes. The attached cells on the dish were washed with PBS (5 mL). The PBS wash was removed by suction and additional PBS (2 mL) was added and again suctioned off to provide twice-washed cells still adhered to the dish. Trypsin (2 mL) was then added to each dish and incubated (3-5 min) until all the cells were detached. Fresh media (8 mL) was added to quench the trypsin. The cell solutions were pipetted into separate 15 mL tubes and centrifuged (4 min at 1,000 rpm). The resulting supernatant was removed to provide a pellet. The pellet was suspended in PBS (10 mL) and was counted by a hemocytometer to provide cell counts for each experimental condition. The pellet was then centrifuged (4 min at 1,000 rpm) and the supernatant removed and the remaining pellet was quantified via protein and polyamine analysis.
To each cell pellet, a perchloric acid (100 μL) buffer solution (0.2M HClO4/1 M NaCl) and 0.9% NaCl (50 μL) was added. The samples were sonicated via sonic dismembranator in small bursts until samples were homogenized and cloudy. Additional perchloric acid (50 μL) buffer solution was added. The homogenized samples were then vortexed and centrifuged (10 min at 4,000 rpm). The supernatants of the respective samples (supernatant #2) were removed and quantified by calibrated pipet (˜190 μL volume). Note: 100 μL of supernatant #2 was placed into a micro-centrifuge tube for polyamine analysis by the N-dansylation HPLC protocol and the rest was placed into a different micro-centrifuge tube for analysis by LCMS of specific amino acid analytes. The respective supernatants were stored in the freezer for polyamine and LCMS quantification and the remaining protein pellet was used for the protein analysis. The protein pellet was dissolved in aq. NaOH (1 mM, 200 μL). The sample stood at room temperature with occasional vortex (45 min) and was then centrifuged (15 min at 15,000 rpm). The supernatant was collected and dissolved protein was quantified using the commercial Pierce BCA kit according to manufacturer's protocol.
This example illustrates aspects according to various embodiments pertaining to an LCMS Analysis. […]

CHO K1 cells = experiment: Cytotoxicity dose-response (MTS cell viability) in CHO K1 cells; format: cell-based, Chinese hamster
Method: CHO K1 Studies. Wild type Chinese hamster ovary (CHO K1) cells were chosen to first study the synthetic compounds' impact on polyamine metabolism. The CHO K1 cell line has high polyamine transport activity and was useful in screening compounds for their polyamine transport inhibitor activity. A dose-response curve was obtained for each compound to determine their toxicity in CHO K1 cells after 48 h incubation. Compound 9 (1666.177) was non-toxic up to the highest dose tested (15 μM).
Regarding the biological studies performed in the following examples, it is noted that CHO K1, CHO-MG, and L3.6pl cells were grown in RPMI 1640 medium supplemented with 10% fetal bovine serum (FBS) and 1% penicillin/streptomycin. All cells were grown at 37° C. under a humidified 5% CO2 atmosphere. Aminoguanidine (1 mM used for CHO K1 and CHOMG cells and 250 μM for L3.6pl) was added to the growth medium to prevent oxidation of the compounds of the bovine serum amine oxidase enzyme that is present in calf serum. The cells used were in early to mid log phase and CHO and CHOMG were plated out at 1000 cells/well, whereas the L3.6pl cells were plated at 500 cells/well in a 96 well plate format.
This example illustrates aspects according to various embodiments pertaining to IC50 determinations and cell viability studies. Cell growth was assayed in sterile 96-well microtiter plates (Costar 3599, Corning, N.Y.). CHO K1 or CHOMG cells were plated at 1,000 cells/70 μL and L3.6pl cells at 500 cells/70 μL. The drug solutions of appropriate concentration in phosphate buffered saline (PBS) were added 10 μL per well after overnight incubation. After drug exposure (e.g., for 48 h for CHO K1 and CHO-MG and 48 h or 72 h for L3.6pl), cell growth was determined by measuring formazan formation from the 3-(4,5dimethylthiazol-2-yl)-5-(3-carboxymethoxyphenyl)-2-(4-sulfenyl)-2H tetrazolium, inner salt (MTS) using SynergyMx Biotek microplate reader for absorbance (490 nm) measurements.^27 All experiments were run in triplicate.

CHO-K1 cells = experiment: Rescue by exogenous native polyamines in CHO-K1 cells; format: cell-based, Chinese hamster; settings: CHO-K1, toxic concentration of compound 10 (results not shown)
CHO-MG cells = experiment: Rescue by exogenous native polyamines in CHO-MG cells; format: cell-based, Chinese hamster; settings: toxic concentration of compound 10 (results not shown)
L3.6pl cells [2] = experiment: Intracellular polyamine and Ant-44 levels (N-dansylation, HPLC) in L3.6pl cells; format: cell-based, human; settings: 3.3 μM compound 10 (SR isomer), FIG. 10I

CC(C)CCN1CCN(C(CNCc2ccccc2)CC2CCCCC2)CC1CC(C)C.Cl.Cl.Cl (centres unmarked) [Compound 10, Benzyl-{3-cyclohexyl-2-[3-isobutyl-4-(3-methyl-butyl)-piperazin-1-yl]-propyl}-amine trihydrochloride salt]
Intracellular level Leucine (L3.6pl cells [1]; 2 μM): 152 ± 8 pmol/mg protein | Intracellular level Methionine (L3.6pl cells [1]; 2 μM): 226 ± 21 pmol/mg protein | Intracellular level Leucine (L3.6pl cells [1]; 5 μM): 94 ± 3 pmol/mg protein | Intracellular level Methionine (L3.6pl cells [1]; 5 μM): 41 ± 23 pmol/mg protein | Intracellular level Leucine (L3.6pl cells [1]; 7 μM): 77 ± 1 pmol/mg protein | Intracellular level Methionine (L3.6pl cells [1]; 7 μM): Not detected | toxicity of compound alone (CHO K1 cells; CHO K1, highest concentration tested (5 μM), 48 h): nontoxic | IC50 (CHO K1 cells; Cricetulus griseus, CHO K1 cells, 48 h incubation): 10.8 ± 0.22 µM | rescue of treated cells by native polyamines (CHO-K1 cells): unable to rescue | rescue of treated cells by native polyamines (CHO-MG cells): unable to rescue | intracellular levels of polyamine metabolites (L3.6pl cells [2]): lower levels of polyamines and N-acetylspermine
